Eight molecules from US9328084B2, “Nitrogen-containing biphenyl compounds, pharmaceutical compositions of same, preparation methods and anti-HIV-1 uses thereof” (Kunming Institute of Botany, The Chinese Academy of Sciences, priority 2010, dated 2016) can be followed below.

pEC50: −log10 of the molar value. Where two headings read alike, the source gives them in different places. Bounds are passed on as bounds.

Type in all cases: cell-based
Series [1] can be described thus: Cytotoxicity test on C8166 host cell (MTT colorimetry). The note with it: human, C8166 cells (T lymphocyte cell line). On the procedure: (§1) Cytotoxicity Test of the Compounds 5-12 Obtained in the Above Examples on C8166 Host Cell 100 μL of 4×10^5/mL C8166 cell suspension was mixed with different candidate compound solutions. Set three repeated wells. Meanwhile, set compound-free control wells. Culture was conducted at 37° C. and 5% CO2 for three days. Cell toxicity was tested using MTT colorimetry. OD value was tested using ELX800 ELISA instrument, with the measurement wavelength of 595 nm and the reference wavelength of 630 nm. […] Calculation method and formula: dose-response curve was plotted according to the experimental results; according to Reed & Muench method, 50% effective concentration (EC50) to inhibit viruses, 50% Cytotoxic Concentration (CC50) and anti-HIV-1 activity in the Therapeutic Index (TI) were calculated according to the formula: TI=CC50/EC50.

Series [2] deals with HIV-1IIIB. Kind of series: Inhibition test on HIV-1IIIB induced cytopathic effect (syncytium formation) of C8166. The conditions noted are these: for pEC50 / EC50: Human immunodeficiency virus 1, C8166, 72 h, HIV-1IIIB in C8166 cells, 3 days; for pEC50: read-out: Syncytia inhibition (EC50) 1; for EC50: read-out: Syncytia inhibition (EC50) 2; for Therapeutic index (TI): TI=CC50/EC50; for anti-HIV-1 activity (in words): comment on Table 1, relative to Compound 5. As to the method:
Inhibition Test of the Compounds 5-12 Obtained in the Above Examples on HIV-1IIIB Induced Cytopathic Effect (CPE) of C8166 8×10^5/mL C8166 cell suspension was inoculated in 50 μL/well into a 96-well cell culture plate containing compound diluted in multiple proportions in 100 μL/well, to which was then added 50 μL of HIV-1IIIB diluted supernatant (M.O.I. 0.0016). Set three repeated wells, at the same time, set normal cell control wells that are free of the compound. Culture was conducted at 37° C. and 5% CO2 for three days. Syncytium formation was counted using an inverted microscope (100×). EC50 (50% Effective Concentration), i.e., the concentration of the compound that inhibits 50% syncytium formation, was calculated. Calculation method and formula: dose-response curve was plotted according to the experimental results; according to Reed & Muench method, 50% effective concentration (EC50) to inhibit viruses, 50% Cytotoxic Concentration (CC50) and anti-HIV-1 activity in the Therapeutic Index (TI) were calculated according to the formula: TI=CC50/EC50.

Series [3] concerns C8166 cells. Kind of series: Cytotoxicity test on C8166 host cell (MTT colorimetry). The note with it: 3 days. As to the method:
as §1

For the molecule `COC(=O)c1cc2c(c(OC)c1-c1ccc([N+](C)(C)Cc3ccccc3)cc1)OCO2.[Br-]` [Compound 12], the CC50 at 3 days in series [1] (read-out: toxicity (CC50) 1) is 53.3 µM. Further, the half-maximal cytotoxic concentration (CC50) at 3 days in series [1] (read-out: toxicity (CC50) 2) was 26.6 µg/mL. In series [2], the pEC50 was 5.12, the concentration for a half-maximal effect (EC50) was 3.74 µg/mL and the “Therapeutic index (TI)” value is 7.10.
Take `COc1c2c(cc(C(=O)O)c1-c1ccc(N(C)C)cc1)OCO2` [Compound 9]: the CC50 at 3 days in series [1] (read-out: toxicity (CC50) 1) came out at 649 µM. In addition, the CC50 at 3 days in series [1] (read-out: toxicity (CC50) 2) amounted to 205 µg/mL. In series [2], the pEC50 was < 4.60, the EC50 was ≥ 7.88 µg/mL, the “Therapeutic index (TI)” value is on record as <25.97 and the “anti-HIV-1 activity (in words)” value is listed as “activity declined notably”.
For the molecule `Br.COC(=O)c1cc2c(c(OC)c1-c1ccc(N(C)C)cc1)OCO2` [Compound 11], the “toxicity (CC50) 2” value in series [3] came out at 29.43 µg/mL. For the same molecule, in series [2], the half-maximal effective concentration (EC50) turned out to be 0.26 µg/mL and the “Therapeutic index (TI)” value amounted to 114.19.
Turning to `COC(=O)c1cc2c(c(OC)c1-c1ccc(N(C)C)cc1)OCO2.Cl` [Compound 10], the “toxicity (CC50) 2” value in series [3] is ≥ 456.38 µg/mL. Also, in series [2], the pEC50 is 6.38, the EC50 came out at 0.15 µg/mL, the “Therapeutic index (TI)” value was >2976.19 and the “anti-HIV-1 activity (in words)” value is “activity was increased”.
On to `COC(=O)c1cc2c(c(OC)c1-c1ccc(N(C)C)c(C)c1)OCO2` [Compound 6], for which, in series [1] (read-out: toxicity (CC50) 1), the CC50 at 3 days is > 1250 µM. Also, the CC50 at 3 days in series [1] (read-out: toxicity (CC50) 2) is ≥ 358 µg/mL. Besides, in series [2], the pEC50 is 6.31, the EC50 is 0.14 µg/mL and the “Therapeutic index (TI)” value is listed as >2551.02.
On to `COC(=O)c1cc2c(c(OC)c1-c1ccc(N3CCOCC3)cc1)OCO2` [Compound 7], for which the CC50 at 3 days in series [1] (read-out: toxicity (CC50) 1) was 881 µM. For the same molecule, the CC50 at 3 days in series [1] (read-out: toxicity (CC50) 2) stood at 317 µg/mL. For the same molecule, in series [2], the pEC50 was 6.19, the EC50 came to 0.23 µg/mL and the “Therapeutic index (TI)” value is given as 1376.35.
As for `COC(=O)c1cc2c(c(OC)c1-c1ccc(N(C)C)cc1)OCO2` [Compound 5], the “toxicity (CC50) 2” value in series [3] was ≥ 411.41 µg/mL. In series [2], the concentration giving a half-maximal response (EC50) stood at 0.14 µg/mL, the “Therapeutic index (TI)” value is listed as >2840.91 and the “anti-HIV-1 activity (in words)” value is recorded as “very significant anti-HIV-1 activity”.
As to `COC(=O)c1cc2c(c(OC)c1-c1ccc(N(c3ccccc3)c3ccccc3)cc1)OCO2` [Compound 8], the CC50 at 3 days in series [1] (read-out: toxicity (CC50) 1) was 802 µM. In series [1] (read-out: toxicity (CC50) 2), the half-maximal cytotoxic concentration (CC50) at 3 days came out at 245 µg/mL. In series [2], the pEC50 is 6.03, the EC50 worked out at 0.28 µg/mL and the “Therapeutic index (TI)” value was determined as 862.52.
